What was measured:
Assay type in all cases: functional, cell-based
Conditions in all cases: mcf7r
[1] = target: T1, ATP-dependent translocase ABCB1 (Homo sapiens, UniProt P08183); assay: TP_TRANSPORTER: efflux of 3uM mitoxantrone in the presence of tRA96023 at a concentration of 10uM in MCF7/R cells
[2] = target: T1, ATP-dependent translocase ABCB1; assay: TP_TRANSPORTER: efflux of 3uM mitoxantrone by Fumitremorgin C at 10uM in MCF7/R cells
[3] = target: T1, ATP-dependent translocase ABCB1; assay: TP_TRANSPORTER: efflux of mitoxantrone (Mitoxantrone: 3uM) in the presence of Ortataxel at a concentration of 10uM in MCF7/R cells
[4] = target: T1, ATP-dependent translocase ABCB1; assay: TP_TRANSPORTER: efflux of 3uM mitoxantrone in the presence of Probenecid at 1mM in MCF7/R cells
[5] = target: T1, ATP-dependent translocase ABCB1; assay: TP_TRANSPORTER: efflux of 3uM mitoxantrone in the presence of PSC-833 (Valspodar) at a concentration of 2.5uM in MCF7/R cells

T1 sequence (P08183 whole entry): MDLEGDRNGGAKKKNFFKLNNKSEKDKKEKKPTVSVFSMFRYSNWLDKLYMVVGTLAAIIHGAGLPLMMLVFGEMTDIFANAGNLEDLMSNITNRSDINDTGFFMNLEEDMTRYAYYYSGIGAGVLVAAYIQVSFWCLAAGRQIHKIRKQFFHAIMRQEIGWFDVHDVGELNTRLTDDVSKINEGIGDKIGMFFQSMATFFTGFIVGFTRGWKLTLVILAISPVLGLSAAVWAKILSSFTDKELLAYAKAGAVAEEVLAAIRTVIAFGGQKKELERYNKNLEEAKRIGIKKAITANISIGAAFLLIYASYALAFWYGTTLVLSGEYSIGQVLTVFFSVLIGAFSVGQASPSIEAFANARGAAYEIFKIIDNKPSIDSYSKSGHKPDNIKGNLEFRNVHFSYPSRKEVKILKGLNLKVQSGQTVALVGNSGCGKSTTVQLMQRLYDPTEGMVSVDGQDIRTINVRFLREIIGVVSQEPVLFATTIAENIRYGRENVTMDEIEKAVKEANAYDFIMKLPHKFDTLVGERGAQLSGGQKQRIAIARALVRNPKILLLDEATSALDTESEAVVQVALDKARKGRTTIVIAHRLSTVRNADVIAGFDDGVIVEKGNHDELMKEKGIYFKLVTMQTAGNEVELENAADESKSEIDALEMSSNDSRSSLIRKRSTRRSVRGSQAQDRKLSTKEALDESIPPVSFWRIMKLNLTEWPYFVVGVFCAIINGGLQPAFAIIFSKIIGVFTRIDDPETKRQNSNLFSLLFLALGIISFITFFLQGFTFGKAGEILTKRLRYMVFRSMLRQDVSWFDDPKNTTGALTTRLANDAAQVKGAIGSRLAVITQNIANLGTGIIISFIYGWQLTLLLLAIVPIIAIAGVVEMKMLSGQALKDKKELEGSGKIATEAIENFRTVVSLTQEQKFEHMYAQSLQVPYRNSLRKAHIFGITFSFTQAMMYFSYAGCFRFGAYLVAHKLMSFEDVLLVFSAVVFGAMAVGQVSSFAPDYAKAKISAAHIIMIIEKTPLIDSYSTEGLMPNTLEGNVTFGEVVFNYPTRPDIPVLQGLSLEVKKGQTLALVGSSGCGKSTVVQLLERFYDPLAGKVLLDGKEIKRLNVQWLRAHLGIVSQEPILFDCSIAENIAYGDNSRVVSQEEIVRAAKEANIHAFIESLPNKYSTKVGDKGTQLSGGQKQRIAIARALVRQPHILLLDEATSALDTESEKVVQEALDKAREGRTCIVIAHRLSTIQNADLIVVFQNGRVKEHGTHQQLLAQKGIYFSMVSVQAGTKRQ

CC(=O)O[C@H]1C(=O)[C@@]2(C)C([C@H](OCc3ccccc3)C3(O)C[C@H](OC(C)=O)C(C)=C1C3(C)C)[C@]1(OC(C)=O)CO[C@@H]1C[C@@H]2OC(=O)/C=C/c1ccc(C(=O)c2ccccc2)cc1 (stereo not given in full)
Activity [1]: inhibitor [+]

COc1ccc2c3c([nH]c2c1)[C@H](C=C(C)C)N1C(=O)[C@@H]2CCCN2C(=O)[C@@H]1C3 [FUMITREMORGIN]
Activity [2]: is not an inhibitor [-]

CC(=O)O[C@H]1C(=O)[C@@]2(C)[C@H]([C@H](OC(=O)c3ccccc3)[C@]34OC(=O)O[C@H]3[C@H](OC(=O)[C@H](O)[C@H](CC(C)C)NC(=O)OC(C)(C)C)C(C)=C1C4(C)C)[C@]1(OC(C)=O)CO[C@@H]1C[C@@H]2O [ORTATAXEL]
Activity [3]: inhibitor [+]

CCCN(CCC)S(=O)(=O)c1ccc(C(=O)O)cc1 [PROBENECID]
Activity [4]: is not an inhibitor [-]

C/C=C/C[C@@H](C)C(=O)[C@H]1C(=O)N[C@@H](C(C)C)C(=O)N(C)CC(=O)N(C)[C@@H](CC(C)C)C(=O)N[C@@H](C(C)C)C(=O)N(C)[C@@H](CC(C)C)C(=O)N[C@@H](C)C(=O)N[C@H](C)C(=O)N(C)[C@@H](CC(C)C)C(=O)N(C)[C@@H](CC(C)C)C(=O)N(C)[C@@H](C(C)C)C(=O)N1C [VALSPODAR]
Activity [5]: inhibitor [+]
